According to patent US8298581B2, “Matrix compositions for controlled delivery of drug substances” (Egalet A/S, priority 2003, dated 2012):
≈ marks a conversion by molar mass, not a printed value.

Assay: Solubility of active ingredient in water
Type: physicochemical
Conditions: 23° C., water at pH 7.6

SMILES: NCC(CC(=O)O)c1ccc(Cl)cc1 (stereo not shown) [active ingredient, Baclofen]
- solubility: 4300 µg/mL (≈ 20.1 mM)
